Measured values published in patent US8648111B2, “N1-2-thiophene-2-ylethyl-N2-substituted biguanide derivate, preparation method thereof, and pharmaceutical composition containing the same as active ingredients” (Hanall Biopharma Co., Ltd., priority 2008, dated 2014).
Where two headings read alike, the source gives them in different places.

Experiments:
Format in all cases: cell-based
HepG2 cells [1] = experiment: Measurement of gluconeogenesis inhibitory ability (14C-lactate, glucose formed in cells)
Protocol: (§1) 2 mM metformin was used as a comparative compound for each of the plates (control group).
HepG2 cells (ATCC: American Type Culture Collection) were cultured in 10% serum-containing high glucose media, transferred to no serum-containing low glucose media (DMEM (Gibco), FBS (Gibco)), and then treated with 100 μM of each of the compounds for 24 hours. Then, the cells were treated with 0.5 μCi ^14C-lactate (Amersham Pharmacia) and 10 mM L-lactate (Sigma), and cultured for 4 hours. After cultivation, the media were removed therefrom, and the cells were washed with PBS, treated with 0.1N NaOH and kept at room temperature for 1 hour. Then, the cells were neutralized with 1N HCl, and the content of glucose formed in the cells was measured with a liquid scintillation counter.
A lower measurement value means an increased gluconeogenesis inhibitory ability.

C2C12 cells = experiment: Measurement of glucose absorption ability (3H-deoxy-glucose uptake with insulin); details: for Glucose absorption (100 uM) Aver.: 100 uM compound with 1 μM insulin, 24 hours, differentiated C2C12, higher value = stronger, more than 200% counts as glucose absorption ability
Protocol: as §1
C2C12 cells (ATCC: American Type Culture Collection), a muscle cell model, were induced to differentiate into muscle cells in 2% bovine fetal serum-containing media (DMEM (Gibco), FBS (Gibco)) for 6 days. The C2C12 cells which differentiated into muscle cells were transferred to serum-free low glucose media (DMEM (Gibco), FBS (Gibco)), treated with 100 μM of each of the compounds, and then cultured with 1 μM of insulin for 24 hours. After cultivation, the cells were treated with 1 μCi ^3H-deoxy-glucose (Amersham Pharmacia) and 10 μM deoxy-glucose (Sigma) at 37° C. for 15 minutes. The media were removed therefrom, and the cells were washed twice with PBS (phosphate buffered saline). The washed cells were treated with 0.1N NaOH and neutralized with 1N HCl. The content of glucose absorbed into the cells was measured with a liquid scintillation counter.
A higher measurement value means a stronger ability to reduce insulin resistance.

HepG2 cells [2] = experiment: Measurement of cholesterol synthesis inhibitory ability (cholesterol content in cell lysates, Amplex red)
Protocol: as §1
A cholesterol synthesis inhibitory ability, which is an important function of AMPK (AMP-activated protein kinase), was measured using HepG2 cells (ATCC: American Type Culture Collection) as a hepatic cell model according to the following procedure.
The hepatic cell model HepG2 cells were cultured in 1% serum-containing media (DMEM (Gibco), FBS (Gibco)) for 24 hours, and then treated with 100 μM or 500 μM of each of the compounds prepared in Examples for 24 hours. Then, the cells were disrupted with a lysis solution (0.1 M potassium phosphate, pH 7.4, 0.05 M NaCl, 5 mM cholic acid, 0.1% Triton X-100 (Sigma)). To the disrupted cells was added the same volume of a reaction solution (2 U/mL of a cholesterol oxidizing agent, 2 U/mL of a peroxidase, 0.2 U/mL of a cholesterol esterase, and 300 μM of Amplex red as a fluorescent factor (Molecular Probe)), which was allowed to react at 37° C. for 30 minutes. After completion of the reaction, the content of cholesterol formed in the cell lysates was measured at a wavelength of 560/590 nm (ex/em) using a fluorescence microscope.
A lower measurement value means an increased cholesterol synthesis inhibitory ability.

HepG2 cells [3] = experiment: Measurement of triglyceride (triglyceride content in cell lysates, Amplex red)
Protocol: as §1
HepG2 cells (ATCC: American Type Culture Collection) were cultured in 1% serum-containing media (DMEM (Gibco), FBS (Gibco)) for 24 hours, and then treated with 100 μM or 500 μM of each of the compounds prepared in Examples for 24 hours. Then, the cells were disrupted with a lysis solution (0.1 M potassium phosphate, pH 7.4, 0.05 M NaCl, 5 mM cholic acid, 0.1% Triton X-100). […] After completion of the reaction, the content of triglyceride formed in the cell lysates was measured at a wavelength of 560/590 nm (ex/em) using a fluorescence microscope.
A lower measurement value means an increased triglyceride synthesis inhibitory ability.

[4] = 100 uM compound, 24 hours, HepG2, lower value = stronger gluconeogenesis inhibition
[5] = 100 uM compound, 24 hours, HepG2, lower value = stronger cholesterol synthesis inhibition
[6] = 500 uM compound, 24 hours, HepG2, lower value = stronger cholesterol synthesis inhibition
[7] = 100 uM compound, 24 hours, HepG2, lower value = stronger triglyceride synthesis inhibition
[8] = 500 uM compound, 24 hours, HepG2, lower value = stronger triglyceride synthesis inhibition
[9] = 100 μM compound vs 2 mM metformin, by comparison of used amounts

Compound	Gluconeogenesis inhibition (100 uM) Aver. (HepG2 cells [1]; [4])	Glucose absorption (100 uM) Aver. (C2C12 cells) [%]	Cholesterol (100 uM) Aver. (HepG2 cells [2]; [5])	Cholesterol (500 uM) Aver. (HepG2 cells [2]; [6])	Triglyceride (100 uM) Aver. (HepG2 cells [3]; [7])	Triglyceride (500 uM) Aver. (HepG2 cells [3]; [8])	effect in inhibiting gluconeogenesis relative to control group (HepG2 cells [1]; [9])	activity at 100 µM (HepG2 cells [1]; Homo sapiens, HepG2, 24 h, 100 uM compound, 24 hours, HepG2, lower value = stronger gluconeogenesis inhibition, read-out: Gluconeogenesis inhibition (100 uM) Aver.) [%]	glucose absorption effect relative to control group (C2C12 cells; [9])	Gluconeogenesis inhibition (100 uM) Aver. (HepG2 cells [1])	Cholesterol (100 uM) Aver. (HepG2 cells [2])	Cholesterol (500 uM) Aver. (HepG2 cells [2])	Triglyceride (100 uM) Aver. (HepG2 cells [3])	Triglyceride (500 uM) Aver. (HepG2 cells [3])
CCCN=C(NCCc1cccs1)NC(=N)N.Cl [Example 13, N1-2-(thiophen-2-ylethyl)-N2-propyl biguanide hydrochloride]	73.51	110.2	77.1	61.7	59.3	48.9								
Cc1cccc(N=C(NCCc2cccs2)NC(=N)N)c1.Cl [Example 27, N1-2-(thiophen-2-ylethyl)-N2-(3-methylphenyl) biguanide hydrochloride]	56.42	12.91	33.26	28.82	46.45	20.64								
Cl.N=C(N)NC(=NCC1CC1)NCCc1cccs1 [Example 43, N1-2-(thiophen-2-ylethyl)-N2-cyclopropylmethyl biguanide hydrochloride]	99.28	196.03	88.47	78.80	90.52	79.92								
Cl.N=C(N)NC(=NC1CCCCCC1)NCCc1cccs1 [Example 22, N1-2-(thiophen-2-ylethyl)-N2-cycloheptyl biguanide hydrochloride]	96.63	173.8	69.8	44.4	77.8	78.9								
CCN=C(NCCc1cccs1)NC(=N)N.Cl [Example 1, N1-(thiophen-2-ylethyl)-N2-ethyl biguanide hydrochloride]		322.7	45.18	30.51	56.70	54.57	at least 20 times	48.9	about 20 times					
COCCN=C(NCCc1cccs1)NC(=N)N.Cl [Example 24, N1-2-(thiophen-2-ylethyl)-N2-methoxyethyl biguanide hydrochloride]	78.89	114.91	92.58	75.75	77.91	71.93								
CCc1ccccc1N=C(NCCc1cccs1)NC(=N)N.Cl [Example 9, N1-2-(thiophen-2-ylethyl)-N2-2-ethylphenyl biguanide hydrochloride]	74.23	252.6	39.25	7.55	74.99	19.51								
CN=C(NCCc1sccc1C)NC(=N)N.Cl [Example 45, N1-2-(3-methylthiophen-2-ylethyl)-N2-methyl biguanide hydrochloride]	94.51	264.76	77.03	63.78	92.38	89.00								
N1-2-(thiophen-2-ylethyl)-N2-t-butyl biguanide hydrochloride [Example 7]	39.98	21.59	42.51	2.79	74.43	16.49								
Cl.N=C(N)NC(=Nc1ccccc1)NCCc1cccs1 [Example 20, N1-2-(thiophen-2-ylethyl)-N2-phenyl biguanide hydrochloride]	87.36	125.4	45.7	18.3	67.5	57.6								
N1-2-(5-ethylthiophen-2-ylethyl)-N2-methyl biguanide hydrochloride [Example 46]		353.21	84.52	71.64	90.82	86.07				23.65				
N1-2-(thiophen-2-ylethyl)-N2-(4-bromobenzyl) biguanide hydrochloride [Example 37]		7.71								89.96	28.36	30.84	61.41	20.15
COc1ccc(CN=C(NCCc2cccs2)NC(=N)N)cc1.Cl [Example 38, N1-2-(thiophen-2-ylethyl)-N2-(4-methoxybenzyl) biguanide hydrochloride]	120.13	195.22	80.35	44.72	100.89	84.10								
